From paper doi:10.1101/2023.08.10.552651v1 (biorxiv, 2023)

Tests used:
Assay in all cases: isothermal titration calorimetry
Assay type in all cases: binding
Conditions in all cases: Tris-HCl, 150 mM NaCl, pH 7.9-8.0, 20 °C; 30 µM trimer; one-site model
[1] = molecular target: ScSbtB (SbtB) (Synechocystis sp. PCC 6803, UniProt P73954, K40A)
[2] = molecular target: ScSbtB (SbtB) (Synechocystis sp. PCC 6803, UniProt P73954, R43A)
[3] = molecular target: ScSbtB (SbtB) (Synechocystis sp. PCC 6803, UniProt P73954, R46A)
Chain of ScSbtB (SbtB) (Synechocystis sp. PCC 6803, UniProt P73954, R46A) (P73954 2-110 R46A): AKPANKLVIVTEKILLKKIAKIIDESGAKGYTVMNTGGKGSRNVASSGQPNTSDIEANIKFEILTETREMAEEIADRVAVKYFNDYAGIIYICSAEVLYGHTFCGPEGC

Chain of ScSbtB (SbtB) (Synechocystis sp. PCC 6803, UniProt P73954, R43A) (P73954 2-110 R43A): as the sequence (P73954 2-110 R46A) above, with R42A, A45R counted along it
Chain of ScSbtB (SbtB) (Synechocystis sp. PCC 6803, UniProt P73954, K40A) (P73954 2-110 K40A): as the sequence (P73954 2-110 R46A) above, with K39A, A45R counted along it

Structure (SMILES)	Kd [1] [µM]	Kd [2] [µM]	Kd [3] [µM]
Nc1ncnc2c1ncn2[C@@H]1O[C@H](COP(=O)(O)OP(=O)(O)OP(=O)(O)O)[C@@H](O)[C@H]1O [ATP]	357	213	
Nc1ncnc2c1ncn2[C@@H]1O[C@H](COP(=O)(O)OP(=O)(O)O)[C@@H](O)[C@H]1O [ADP]	877	472	435
Nc1ncnc2c1ncn2[C@@H]1O[C@H](COP(=O)(O)O)[C@@H](O)[C@H]1O [AMP]			94.3
